Results published in patent publication US6713512B1, “Uses of kombic acid as an anticancer and cholesterol-lowering agent” (priority 2001, dated 2004).
pIC50: −log10 of the molar value. ≈ marks a conversion by molar mass, not a printed value. Where “and” joins values, the source holds several entries; their conditions need not be identical. Equal entries are not always repeated. Where two headings read alike, the source gives them in different places.

Tests used:
[1] = system: Rat liver microsomes lipid peroxidation; experiment: Lipid peroxidation in rat liver microsomes induced by ascorbic acid and ferrous sulfate (MDA/thiobarbituric acid); type: biochemical; settings: for IC50: concentration required to inhibit lipid peroxidation by 50%, obtained by plotting
Description: Rat liver microsomes, previously incubated with or without inhibitor, were treated with ascorbic acid and ferrous sulfate to induce lipid peroxidation. The extent of lipid peroxidation was determined by the amount of malondialdehyde produced, which was determined by reaction with thiobarbituric acid.
Biological specimens contain a mixture of thiobarbituric acid reactive substances (TBARS), including lipid hydroperoxides and aldehydes, which increase as a result of oxidative stress. TBARS return to normal levels over time, depending upon the presence of antioxidants. In practice, TBARS are expressed in terms of malondialdehyde (MDA) equivalents. In this assay, an MDA standard is used to construct a standard curve against which unknown samples can be plotted. The presence of this compound is measured by fluorometry or spectrophotometry.

[2] = system: Human low density lipoprotein; experiment: Copper-induced lipid peroxidation of human low density lipoprotein (MDA/thiobarbituric acid); type: biochemical; settings: for antioxidant activity compared with natural vitamin E: result in words
Description: Human low density lipoprotein was dialyzed, incubated with or without inhibitor, and then treated with 10 μM copper to induce lipid peroxidation for several hours. The extent of lipid peroxidation was determined by the amount of malondialdehyde produced, which was determined by reaction with thiobarbituric acid as described above.

[3] = Oxygen Stability Index of edible oil; type: physicochemical; settings: for antioxidant effectiveness in edible oil: result in words; for Hours to end-point: 110° C.
Description: The Oxygen Stability Index is used to measure the effectiveness of antioxidants in the stabilization of edible oils against oxidative degradation. The “Hours to end-point” indicate when a time/conductivity curve changes shape, with a sharp slope upturn at that time point. The temperature of the test, which measures conductivity of a solution into which oxidation products from the oil being tested is passed, is 110° C.

[4] = system: Ehrlich carcinoma, sarcoma 180, implanted murine carcinoma (IMC) tumors, Meth-A fibrosarcoma; experiment: Survival of mice bearing tumor cells; type: in vivo; settings: injected intraperitoneally
Source text: Such mice bearing tumor cells include, but are not limited to Ehrlich carcinoma, sarcoma 180, or implanted murine carcinoma (IMC) tumors, Meth-A fibrosarcoma or other tumors.

[5] = system: MDA-MB-435 estrogen receptor-negative human breast cancer cells; experiment: [3H] thymidine incorporation, estrogen receptor-negative cells; type: cell-based
Description: Human cancer cells, such as, but not limited to, MDA-MB-435 estrogen receptor-negative human breast cancer cells are incubated in the presence of varying concentrations of kombic acid or its derivatives. The incorporation of [^3H] thymidine into the DNA of the cells is measured.

[6] = system: MCF-7 estrogen receptor-positive human breast cancer cells; experiment: Proliferation of estrogen receptor-positive cells; type: cell-based; settings: alone
Description: Human breast cancer cells are incubated in the presence and absence of kombic acid and its derivatives individually. The IC50 (the concentration of Kombic Acid or its derivatives required to inhibit cell proliferation by 50%) is then determined.

MCF-7 cells = experiment: Effect of excess estrogen on inhibition in steroid-depleted cells; type: cell-based, human; settings: presence of estradiol
Source text: The effect of Kombic Acid and its derivatives on the estrogen receptor is investigated. Human cancer cells in culture, such as, but not limited to, MCF-7 cells are depleted of steroids and treated with Kombic Acid, its derivatives, tocotrienols, or tamoxifen (used as a positive control) in the presence or absence of estradiol.

PKC = experiment: Protein kinase C activity; type: biochemical
[7] = system: PAP2 (ras-transformed NIH 3T3 mouse fibroblasts) cells; experiment: Proliferation of PAP2 cells; type: cell-based
[8] = Cholesterol lowering in animal models; type: in vivo
Source text: (§1) Hypercholesterolemia associated with elevated LDL (low-density lipoprotein) cholesterol is a risk factor for CHD (coronary heart disease). LDL-cholesterol combined with oxidative stress can contribute to the formation and development of atherosclerotic plaques. To lower the risk of CHD, antioxidants such as Kombic Acid and its derivatives counteract LDL oxidation.

[9] = Plasma cholesterol and apoB in humans; type: in vivo
Source text: as §1

HepG2 cells = experiment: Medium apoB of LDL-like lipoprotein secreting cells (ELISA); type: cell-based; settings: nontoxic concentrations, serum-free medium
Description: The apoB-lowering potential of Kombic Acid and its derivatives is evaluated in cells that secrete and catabolize lipoproteins similar to LDL, for example, but not limited to HepG2 cells. Confluent cells are preincubated in serum-free medium, which inhibits cell proliferation and stimulates biosynthesis of LDL-like lipoproteins. They are subsequently incubated in the same medium in the presence or absence of Kombic Acid or its derivatives at the range of nontoxic concentrations. For each compound, the highest nontoxic concentration is predetermined by a viability assay, such as but not limited to the 3-(4,5-dimethylthiazol-2-yl)-2,5-diphenyltetrazolium bromide (MTT) viability assay. At the end of the incubation, changes in medium concentration of apoB B are evaluated by ELISA and compared with changes induced in the absence of kombic acid or its derivatives.

[10] = inhibitor concentration 0.156 μg/mL
[11] = inhibitor concentration 0.313 μg/mL
[12] = inhibitor concentration 0.625 μg/mL
[13] = inhibitor concentration 0.625 μg/mL, peroxidation (nmoles MDA) with inhibitor divided by without
[14] = 10 μM copper, read-out: IC50: mean +/− Standard Deviation
[15] = individual determinations, 10 μM copper, read-out: IC50: data

IC50 [1]	pIC50 [2, 14]	pIC50 [2, 15]	IC50 [2, 15]	Compound	% Inhibition [1, 10]	Remaining lipid peroxidation (fraction of control) [1, 10]	% Inhibition [1, 11]	Remaining lipid peroxidation (fraction of control) [1, 11]	% Inhibition [1, 12]	Remaining lipid peroxidation (fraction of control) [1, 13]	antioxidant activity compared with natural vitamin E [2]	antioxidant effectiveness in edible oil [3]	reversal of inhibition by excess estrogen (MCF-7 cells)	other results
0.31 mg/L (≈ 0.72 µM)	–	–	–	Cc1c(C)c2c(c(C)c1O)CCC(C)(CCCC(C)CCCC(C)CCCC(C)C)O2 (racemic) [dl-α-tocopherol, reference compound]	8%	0.92	50%	0.50	66%	0.34	inhibit peroxidation equally as well as natural (d) vitamin E	–	–	–
0.20 mg/L (≈ 0.469 µM)	5.28	5.11 and 5.68 and 5.66 and 5.07 and 5.28	–	CC(=CCCC(C)=CCc1cc(O)cc(C)c1O)CCC=C(C)CCC=C(C)C(=O)O [Kombic Acid, 16(2′,5′-dihydroxy-3′-methylphenyl)-2,6,10,14-tetramethyl-2,6,10,14-hexadecatetraenoic acid]	36%	0.64	89%	0.11	90%	0.10	no significant difference in antioxidant activity	effective antioxidants	does not reverse the inhibition	antioxidant activity ([1]; result in words): very strong antioxidant activity; Hours to end-point ([3]; soybean oil + 40 ppm): 8.35 h and 8.85 h; Hours to end-point ([3]; soybean oil + 300 ppm): 15.55 h and 15.40 h; life of mice bearing tumor cells [4]: prolong the life of mice bearing tumor cells; proliferation ([3H] thymidine incorporation) ([5]; alone): inhibit the proliferation of these cells; interaction with tamoxifen ([5]; with tamoxifen): can act synergistically with tamoxifen; cell proliferation [6]: can inhibit the proliferation; PKC activity (PKC): inhibitors of PKC activity; cell proliferation [7]: inhibit the proliferation of these cells; cholesterol-lowering effects [8]: produce cholesterol-lowering effects in animal models; plasma total and LDL cholesterol and apoB [9]: effective in reducing elevated plasma levels of total and LDL cholesterol as well as plasma apolipoprotein B (apoB) concentrations; medium apoB (HepG2 cells): dose-dependent reduction of medium apoB B
–	–	–	–	CC(C)(C)c1cc(O)ccc1O [TBHQ, tributyl-tert-hydroquinone, reference compound]	–	–	–	–	–	–	–	effective antioxidants	–	Hours to end-point ([3]; soybean oil + 200 ppm): 21.10 h and 19.85 h
–	5.34	–	5.1 µM (2×) and 3.5 µM	Cc1c(C)c2c(c(C)c1O)CC[C@@](C)(CCC[C@H](C)CCC[C@H](C)CCCC(C)C)O2 [d-α-tocopherol, reference compound]	–	–	–	–	–	–	–	–	–	–
–	–	–	–	CC/C(=C(\c1ccccc1)c1ccc(OCCN(C)C)cc1)c1ccccc1 [tamoxifen]	–	–	–	–	–	–	–	–	does reverse the inhibition	–
–	–	–	–	tocotrienols	–	–	–	–	–	–	–	–	does not reverse the inhibition	–
